Experimental data reported in publication PMC4632086, “Effects and possible mechanisms of action of acacetin on the behavior and eye morphology of Drosophila models of Alzheimer’s disease” (Scientific Reports, 2015).

How the values were obtained:
Assay type in all cases: in vivo, Drosophila melanogaster
GMR < APP/BACE-1 flies = assay: Cason's trichrome staining of eye sections (photoreceptor degeneration); settings: 100, 300, and 500 μM; 5- and 15-day-old males
Procedure: Cason’s trichrome staining was performed, as described by Wang et al.[33] and Perumalsamy et al.[77]. Briefly, the heads of 5- and 15-day-old male GMR < APP/BACE-1 flies, cultured in vials as stated previously, were fixed in a 4% paraformaldehyde buffer solution (pH 7.4) overnight at 4 °C, and paraffin-embedded preparations of the fly heads were then sectioned at 10 μm thickness using a HM 340E rotary microtome (Thermo Scientific Microm, Walldorf, Germany). The sections were dried at 40 °C overnight, subsequently deparaffinized with CitriSolv (Fisher Scientific, Fair Lawn, NJ, USA), and rehydrated using a series of ethanol solutions in phosphate-buffered saline (PBS). The rehydrated paraffin sections were soaked in Carson’s trichrome solution for 15 min, and the slides were gently swashed in tap water and subsequently rinsed three times in distilled water (DW). The excess water was removed with tissue paper, and the samples were mounted using Vectashield H-1000 mounting medium (Vector Laboratories, Burlingame, CA, USA).

elav < APP/BACE-1 flies [1] = assay: Climbing assay (negative geotaxis); settings: 100, 300, and 500 μM, males
Procedure: The climbing activity assay was performed, as described by Wang et al.[33] and Crowther et al.[34]. Groups of 20 male elav < APP/BACE-1 flies (1, 5, 10, and 15 days old), cultured in vials as stated previously, were separately placed in an empty vial conjoined with another vial on top, and manually tapped twice. After 20 s, the flies that climbed from the bottom and crossed the 9.5 cm line were counted, and the climbing index was determined as the number of flies that climbed to the top vial relative to the total number of test flies and expressed as a percentage. The controls received 0.1% DMSO. All trials were repeated five times using 20 males per replicate.

elav < APP/BACE-1 flies [2] = assay: Feeding assay (Acid red intake); settings: 100, 300, and 500 μM; males; 2 h feeding
Procedure: The adult feeding assay was performed according to the methods of Wang et al.[33] and Bahadorani et al.[79]. Groups of 15 newly emerged male elav < APP/BACE-1 flies were cultured on standard media for 3 days and then starved for 20 h in vials containing three layers of Whatman no. 2 filter paper (Whatman, Maidstone, UK) soaked in DW. The flies were then transferred into vials containing media (with 0.2% Acid red) supplemented with acacetin (100, 300, and 500 μM) in 0.1% DMSO. The controls were fed with media supplemented with 0.2% Acid red and 0.1% DMSO. After 2 h of feeding, the abdomens were isolated and homogenized in 1 mL DW. After centrifugation (5000 rpm, 25 °C, 5 min), the optical density (OD) of the supernatant was measured at 505 nm, because this OD value is considered to index the amount of food intake by flies, as described by Min and Tatar[80]. All treatments were repeated three times using 15 males per replicate.

human BACE-1 = assay: Western blot, BACE-1 protein in heads of elav < APP/BACE-1 flies; settings: 20-day-old males
Procedure: The elav < APP/BACE-1 flies were cultured from the egg stage, as described previously. The lysates were obtained from the heads of 50 male flies (20 days old) by placing the heads in 100 μL RIPA buffer (pH 8.0) containing a 1% protease inhibitor cocktail. The controls received 0.1% DMSO. The lysates were centrifuged at 14,000 rpm for 30 min at 4 °C. The protein content of the supernatant was determined using a Bradford Protein Assay kit (Sigma-Aldrich) and BSA was used as the standard. The total proteins (30 μg/sample for APP and BACE-1 detection; 70 μg/sample for Aβ detection) were mixed with an equal volume of 5× sample buffer[81] containing 40 mM of DL-dithiothreitol, boiled for 10 min, and then loaded onto 8, 10, and 12% sodium dodecyl sulfate-polyacrylamide gels using a Mini-Protean 3 electrophoresis cell (Bio-Rad, Hercules, CA, USA) for APP, APP-CTF (APP-αCTF and APP-βCTF) and AICD, BACE-1, and Aβ detection, respectively. After electrophoresis at 110 V in 2 h, the proteins from the gels were transferred onto a polyvinyl difluoride membrane (Pall Corporation, Pensacola, FL, USA) using an electroblotting apparatus. The membrane was then blocked with 5% skim milk (BD Difco, Flanklin Lakes, NJ, USA) in PBS containing 0.1% (v/v) Tween-20 (0.1% PBS-T) at room temperature for 1 h, and further incubated overnight at 4 °C with a 1:4,000 dilution of an anti-APP C-terminal antibody to detect the cleaved APP product, a 1:1,000 dilution of anti-BACE-1, and a 1:1,000 dilution of anti-amyloid (4G8). After washing with 0.1% PBS-T three times at 10 min intervals, the membranes were further incubated for 2 h with a goat anti-rabbit IgG H&L (HRP) secondary antibody at a1:4,000 dilution for APP and BACE-1 and a goat anti-mouse lgG-HRP at a 1:5,000 dilution for β-amyloid. […] The differences in protein expression were quantified using a Molecular Imager Gel Doc XR system (Bio-Rad, Hercules, CA, USA) and normalized to actin expression on the same membrane. The results are expressed as the means ± SEs of duplicate samples from three independent experiments.

APP-CTF = assay: Western blot, APP-CTF in heads of elav < APP/BACE-1 flies; settings: 100, 300, and 500 μM; 20-day-old males
Procedure: The elav < APP/BACE-1 flies were cultured from the egg stage, as described previously. The lysates were obtained from the heads of 50 male flies (20 days old) by placing the heads in 100 μL RIPA buffer (pH 8.0) containing a 1% protease inhibitor cocktail. The controls received 0.1% DMSO. The lysates were centrifuged at 14,000 rpm for 30 min at 4 °C. The protein content of the supernatant was determined using a Bradford Protein Assay kit (Sigma-Aldrich) and BSA was used as the standard. The total proteins (30 μg/sample for APP and BACE-1 detection; 70 μg/sample for Aβ detection) were mixed with an equal volume of 5× sample buffer[81] containing 40 mM of DL-dithiothreitol, boiled for 10 min, and then loaded onto 8, 10, and 12% sodium dodecyl sulfate-polyacrylamide gels using a Mini-Protean 3 electrophoresis cell (Bio-Rad, Hercules, CA, USA) for APP, APP-CTF (APP-αCTF and APP-βCTF) and AICD, BACE-1, and Aβ detection, respectively. […] The differences in protein expression were quantified using a Molecular Imager Gel Doc XR system (Bio-Rad, Hercules, CA, USA) and normalized to actin expression on the same membrane. The results are expressed as the means ± SEs of duplicate samples from three independent experiments.

With COc1ccc(-c2cc(=O)c3c(O)cc(O)cc3o2)cc1 [acacetin] the photoreceptor degeneration (GMR < APP/BACE-1 flies) was “partially suppressed the photoreceptor degeneration”, the climbing index (elav < APP/BACE-1 flies [1]; 1 day postemergence, vehicle 47%) was “approximately 68%” and the climbing index (elav < APP/BACE-1 flies [1]; 5 days postemergence, vehicle 39%) was 60–66%. The climbing index (elav < APP/BACE-1 flies [1]; 10 days postemergence, vehicle 36%) was 53–54%, the climbing index (elav < APP/BACE-1 flies [1]; 15 days postemergence, vehicle 11%) was 27–30% and the “feeding (food intake)” value (elav < APP/BACE-1 flies [2]) was “did not significantly affect feeding”. For the same molecule, the “BACE-1 protein levels, % of the control levels” value (“BACE-1 protein levels, %” below) (human BACE-1; 100 μM) was 81%, the “BACE-1 protein levels, %” value (human BACE-1; 300 μM) was 75% and the “BACE-1 protein levels, %” value (human BACE-1; 500 μM) was 74%. For the same molecule, the “APP-CTF, % of the control levels” value (APP-CTF) was “approximately 80%”.
